Measurements: the CheMixHub ionic liquid set

Assay: xn = mol fraction of the nth substance listed

CC[n+]1ccn(C)c1.O=S(=O)([O-])O + Cc1ncc(C[n+]2csc(CCO)c2C)c(N)n1.Cl.[Cl-] + O
viscosity [mPa·s], 100 kPa
Conditions | 293.15 K | 298.15 K | 303.15 K | 308.15 K | 313.15 K | 318.15 K
x2 = 0, x1 = 0.0009002 | 1.05 | 0.94 | 0.84 | 0.76 | 0.69 | 0.65
x2 = 0, x1 = 0.001799 | 1.07 | 0.95 | 0.85 | 0.77 | 0.7 | 0.64
x2 = 0, x1 = 0.002696 | 1.08 | 0.96 | 0.86 | 0.78 | 0.71 | 0.64
x2 = 0.0002717, x1 = 0.0008999 | 1.06 | 0.95 | 0.85 | 0.77 | 0.7 | 0.66
x2 = 0.0002739, x1 = 0.001798 | 1.08 | 0.96 | 0.86 | 0.78 | 0.71 | 0.65
x2 = 0.0002783, x1 = 0.002695 | 1.09 | 0.97 | 0.87 | 0.79 | 0.72 | 0.65
x2 = 0.0005451, x1 = 0.0008997 | 1.07 | 0.96 | 0.85 | 0.78 | 0.71 | 0.67
x2 = 0.0005496, x1 = 0.001798 | 1.09 | 0.97 | 0.87 | 0.79 | 0.72 | 0.66
x2 = 0.0005575, x1 = 0.002694 | 1.1 | 0.98 | 0.88 | 0.8 | 0.73 | 0.66
x2 = 0.0008249, x1 = 0.001797 | 1.1 | 0.98 | 0.88 | 0.8 | 0.73 | 0.67
x2 = 0.0008327, x1 = 0.002693 | 1.11 | 0.99 | 0.89 | 0.81 | 0.73 | 0.67
x2 = 0.0008356, x1 = 0.0008994 | 1.08 | 0.97 | 0.86 | 0.79 | 0.72 | 0.68
x2 = 0.00109, x1 = 0.0008992 | 1.09 | 0.98 | 0.87 | 0.8 | 0.73 | 0.68
x2 = 0.001102, x1 = 0.001797 | 1.11 | 0.98 | 0.89 | 0.81 | 0.74 | 0.68
x2 = 0.001112, x1 = 0.002693 | 1.12 | 1 | 0.9 | 0.81 | 0.74 | 0.68
x2 = 0.001362, x1 = 0.000899 | 1.1 | 0.99 | 0.88 | 0.8 | 0.74 | 0.69
x2 = 0.001376, x1 = 0.001796 | 1.11 | 0.99 | 0.9 | 0.82 | 0.75 | 0.69
x2 = 0.001389, x1 = 0.002692 | 1.13 | 1.01 | 0.91 | 0.82 | 0.75 | 0.69
x2 = 0.001634, x1 = 0.0008987 | 1.1 | 1 | 0.89 | 0.81 | 0.75 | 0.7
x2 = 0.001651, x1 = 0.001796 | 1.12 | 1 | 0.91 | 0.83 | 0.76 | 0.7
x2 = 0.001665, x1 = 0.002691 | 1.14 | 1.02 | 0.92 | 0.83 | 0.76 | 0.7
x2 = 0.001907, x1 = 0.0008985 | 1.11 | 1.01 | 0.9 | 0.82 | 0.76 | 0.71
x2 = 0.001926, x1 = 0.001795 | 1.13 | 1.01 | 0.92 | 0.84 | 0.77 | 0.71
x2 = 0.001943, x1 = 0.00269 | 1.15 | 1.03 | 0.93 | 0.84 | 0.77 | 0.71

CC#N + C[N+](C)(C)CCC[N+]1(C)CCCCC1.N#C[N-]C#N.N#C[N-]C#N
100 kPa, x2 = 0
Conditions | viscosity [mPa·s]
288.15 K | 0.382
298.15 K | 0.348
303.15 K | 0.333
333.15 K | 0.266

CCCCCCO + CCCC[n+]1ccn(C)c1.O=[N+]([O-])[O-]
100 kPa, x2 = 0
Conditions | viscosity [mPa·s]
293.15 K | 5.37
303.15 K | 3.94
313.15 K | 2.95
323.15 K | 2.26

CC(=O)c1ccccc1 + CC[n+]1ccn(C)c1.F[B-](F)(F)F
100 kPa
Conditions | viscosity [mPa·s]
293.15 K, x1 = 0.2999 | 19.7
293.15 K, x1 = 0.4003 | 16
303.15 K, x1 = 0.094 | 16.9
303.15 K, x1 = 0.4989 | 8.9
313.15 K, x1 = 0.8918 | 2.09
313.15 K, x1 = 0.9498 | 1.68
323.15 K, x1 = 0.094 | 9.4
323.15 K, x1 = 0.4003 | 6.3
323.15 K, x1 = 0.4989 | 4.73
333.15 K, x1 = 0.0416 | 9.1
333.15 K, x1 = 0.094 | 7.5
333.15 K, x1 = 0.4003 | 5
333.15 K, x1 = 0.8918 | 1.52
333.15 K, x1 = 0.9498 | 1.23
333.15 K, x1 = 1 | 1.09

CCCC[n+]1ccn(C)c1.O=S(=O)([N-]S(=O)(=O)C(F)(F)F)C(F)(F)F + CC(=O)[O-].CCCC[NH2+]CCO
101 kPa, x2 = 0
Conditions | viscosity [mPa·s]
278.15 K | 145.6
288.15 K | 83.44
293.15 K | 65.11
318.15 K | 24.05
